According to US20250042850A1, “PHARMACEUTICAL COMPOUNDS AND METHODS OF MAKING AND USING THE SAME” (Athos Therapeutics, Inc., priority 2021, published 2025):
Entries after “also recorded” stand apart in the source; their conditions may differ. Read-outs that look alike come from different tables or passages of the source.

Tests used:
Vanin-1 = Vanin-1 (Homo sapiens (Human), UniProt O95497); assay: VNN1 inhibitor binding assay (Kd, affinity beads, qPCR readout); settings: read-out: Vanin Affinity (nM), Vanin-1 Binding constants
Sequence of Vanin-1 (O95497 22-513): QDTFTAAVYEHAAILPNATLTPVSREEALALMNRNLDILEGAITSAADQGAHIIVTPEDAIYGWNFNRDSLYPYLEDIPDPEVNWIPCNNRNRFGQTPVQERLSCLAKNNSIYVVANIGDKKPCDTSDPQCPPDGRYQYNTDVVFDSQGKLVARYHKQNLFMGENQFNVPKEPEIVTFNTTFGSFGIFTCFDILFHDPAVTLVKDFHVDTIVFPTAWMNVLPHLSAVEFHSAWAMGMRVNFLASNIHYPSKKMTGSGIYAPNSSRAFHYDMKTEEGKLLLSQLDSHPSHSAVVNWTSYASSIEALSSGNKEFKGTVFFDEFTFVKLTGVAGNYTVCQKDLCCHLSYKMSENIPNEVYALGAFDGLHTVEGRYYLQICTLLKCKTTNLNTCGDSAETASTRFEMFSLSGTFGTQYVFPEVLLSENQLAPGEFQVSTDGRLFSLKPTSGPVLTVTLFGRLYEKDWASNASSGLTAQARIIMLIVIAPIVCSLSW
Experimental: (§1) Test compounds were prepared as 111X stocks in 100% DMSO. Kd values were determined using an 11-point 3-fold compound dilution series with three DMSO control points. […] The compounds were then diluted directly into the assays such that the final concentration of DMSO was 0.9%. All reactions were performed in polypropylene 384-well plate. Each was a final volume of 0.02 ml. […] The beads were then re-suspended in elution buffer (1×PBS, 0.05% Tween 20, 0.5 μM non-biotinylated affinity ligand) and incubated at room temperature with shaking for 30 minutes. The kinase concentration in the eluates was measured by qPCR.
Binding constants were calculated with a standard dose-response curve using the Hill equation:
The Hill Slope was set to −1. Curves were fitted using a non-linear least square fit with the Levenberg-Marquardt algorithm. The binding data is summarized in Table 1 where A is less than 100 nM, B is 100 to 500 nM, and C is greater than 500 nM.
as §1, with “are” for “were”, “is” for “was”, “reactions” for “reactions were”
Binding constants are calculated with a standard dose-response curve using the Hill equation:
The Hill Slope was set to −1. Curves were fitted using a non-linear least square fit with the Levenberg-Marquardt algorithm. The binding data is summarized in Table 4 where A is less than 100 nM, B is 100 to 500 nM, and C is greater than 500 nM.

CYP1A2 = CYP1A2 (Homo sapiens (Human), UniProt P05177); assay: Cytochrome P450 inhibition assay, substrate cocktail in human liver microsome; format: in vitro ADME; settings: microsomes
Sequence of CYP1A2 (P05177 whole entry): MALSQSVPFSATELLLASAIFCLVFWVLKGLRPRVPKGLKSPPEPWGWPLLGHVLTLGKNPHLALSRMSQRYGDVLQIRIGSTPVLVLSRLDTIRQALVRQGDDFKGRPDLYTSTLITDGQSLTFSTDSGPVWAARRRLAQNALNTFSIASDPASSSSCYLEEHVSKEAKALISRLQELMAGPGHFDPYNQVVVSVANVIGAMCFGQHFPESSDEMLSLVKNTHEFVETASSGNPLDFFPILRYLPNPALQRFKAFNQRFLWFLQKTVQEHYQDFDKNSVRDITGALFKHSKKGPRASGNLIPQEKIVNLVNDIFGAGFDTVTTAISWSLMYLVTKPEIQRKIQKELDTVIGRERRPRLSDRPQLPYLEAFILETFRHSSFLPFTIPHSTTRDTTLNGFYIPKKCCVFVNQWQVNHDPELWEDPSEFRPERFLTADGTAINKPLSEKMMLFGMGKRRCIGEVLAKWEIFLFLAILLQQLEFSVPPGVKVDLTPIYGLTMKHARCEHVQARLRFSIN
Experimental: (§2) Cytochrome P450 inhibition of a drug is a key factor in determining pharmacokinetic drug-drug interactions. The objective of this study is to evaluate the inhibition potential of VNN1 inhibitors on six (6) major human cytochrome P450 enzymes, including CYP1A2, CYP2C8, CYP2C9, CYP2C19, CYP2D6, and CYP3A4. Inhibition was determined by using a substrate cocktail and analyzing the rate of specific metabolites formation. The cytochrome P450 inhibition assay was developed using a cocktail consisting of six (6) probe substrates ethoxy-resorufin (CYP1A2), rosiglitazone (CYP2C8), diclofenac (CYP2C9), S-mephenytoin (CYP2C19), dextromethorphan (CYP2D6), and midazolam (CYP3A4). The cocktail was incubated in human liver microsome with NADPH regenerating system (NRS) in a shaking bath at 37±2° C. The formation of specific metabolites was monitored by LC/MS/MS. Test compound was added to the cocktail-liver microsome mixture at varying concentrations and its effect on cytochrome P450 activity was determined by analyzing the rate of specific metabolite formation. The percent inhibition was calculated and plotted with reference to the concentration, and the IC50 value for inhibition was derived by fitting the data with a standard sigmoidal dose-response equation via MLA “Quest Graph™ ED50 Calculator.” AAT Bioquest, Inc, 17 Sep. 2020, aatbio.com/tools/ed50-calculator. […]. […].
(§3) Inhibition by Cytochrome P450 is determined using a substrate cocktail and analyzing the rate of specific metabolites formation outlined in Example 21. The following structures were tested: Compound 5, Compound 9, Compound 10, Compound 13, Compound 14, Compound 16, Compound 20, Compound 21, Compound 23, Compound 24, and Compound 25.

CYP2C19 = CYP2C19 (Homo sapiens (Human), UniProt P33261); assay: as above; format: in vitro ADME; settings: CYP isozyme 2C19, human liver microsome
Sequence of CYP2C19 (P33261 whole entry): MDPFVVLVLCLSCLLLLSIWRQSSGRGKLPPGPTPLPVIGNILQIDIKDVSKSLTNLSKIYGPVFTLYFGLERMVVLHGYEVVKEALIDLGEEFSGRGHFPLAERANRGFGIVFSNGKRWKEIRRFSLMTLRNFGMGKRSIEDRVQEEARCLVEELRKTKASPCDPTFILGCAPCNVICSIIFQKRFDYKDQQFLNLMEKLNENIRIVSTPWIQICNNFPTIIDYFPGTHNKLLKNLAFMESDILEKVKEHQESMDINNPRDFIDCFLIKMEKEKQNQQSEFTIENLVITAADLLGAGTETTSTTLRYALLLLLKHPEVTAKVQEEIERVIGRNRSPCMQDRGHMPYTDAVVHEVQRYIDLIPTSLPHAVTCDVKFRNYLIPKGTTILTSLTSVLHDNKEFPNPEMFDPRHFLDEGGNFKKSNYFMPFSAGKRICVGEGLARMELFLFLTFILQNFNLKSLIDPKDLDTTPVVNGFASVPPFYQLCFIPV
Experimental: as §2, §3

CYP2C8 = CYP2C8 (Homo sapiens (Human), UniProt P10632); assay: as above; format: in vitro ADME; settings: microsomes
Sequence of CYP2C8 (P10632 whole entry): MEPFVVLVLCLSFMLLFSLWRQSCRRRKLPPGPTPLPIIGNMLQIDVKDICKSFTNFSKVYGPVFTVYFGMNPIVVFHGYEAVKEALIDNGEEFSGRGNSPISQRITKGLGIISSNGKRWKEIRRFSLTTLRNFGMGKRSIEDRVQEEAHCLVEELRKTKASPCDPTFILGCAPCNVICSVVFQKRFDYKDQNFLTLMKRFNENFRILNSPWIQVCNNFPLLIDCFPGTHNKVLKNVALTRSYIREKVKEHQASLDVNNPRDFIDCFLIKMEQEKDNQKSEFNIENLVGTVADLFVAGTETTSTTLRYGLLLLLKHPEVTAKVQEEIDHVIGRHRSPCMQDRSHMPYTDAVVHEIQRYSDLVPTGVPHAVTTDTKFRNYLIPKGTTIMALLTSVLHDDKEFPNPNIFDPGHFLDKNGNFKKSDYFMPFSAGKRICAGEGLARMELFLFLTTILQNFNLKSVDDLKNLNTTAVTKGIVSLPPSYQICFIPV
Experimental: as §2, §3

CYP2C9 = CYP2C9 (Homo sapiens (Human), UniProt P11712); assay: as above; format: in vitro ADME; settings: microsomes
Sequence of CYP2C9 (P11712 whole entry): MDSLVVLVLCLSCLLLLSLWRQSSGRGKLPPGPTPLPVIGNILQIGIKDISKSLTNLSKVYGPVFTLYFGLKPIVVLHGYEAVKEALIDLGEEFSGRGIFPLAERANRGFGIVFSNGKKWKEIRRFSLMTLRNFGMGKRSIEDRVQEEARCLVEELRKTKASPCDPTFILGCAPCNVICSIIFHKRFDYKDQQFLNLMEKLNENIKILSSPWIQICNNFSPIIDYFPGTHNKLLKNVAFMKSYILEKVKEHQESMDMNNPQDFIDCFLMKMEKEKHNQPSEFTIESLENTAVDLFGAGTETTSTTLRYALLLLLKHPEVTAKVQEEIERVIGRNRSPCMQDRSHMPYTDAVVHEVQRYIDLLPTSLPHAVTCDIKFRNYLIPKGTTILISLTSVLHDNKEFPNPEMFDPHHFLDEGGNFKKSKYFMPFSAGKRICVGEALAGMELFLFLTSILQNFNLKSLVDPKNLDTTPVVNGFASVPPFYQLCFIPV
Experimental: as §2, §3

CYP2D6 = CYP2D6 (Homo sapiens (Human), UniProt P10635); assay: as above; format: in vitro ADME; settings: microsomes
Sequence of CYP2D6 (P10635 whole entry): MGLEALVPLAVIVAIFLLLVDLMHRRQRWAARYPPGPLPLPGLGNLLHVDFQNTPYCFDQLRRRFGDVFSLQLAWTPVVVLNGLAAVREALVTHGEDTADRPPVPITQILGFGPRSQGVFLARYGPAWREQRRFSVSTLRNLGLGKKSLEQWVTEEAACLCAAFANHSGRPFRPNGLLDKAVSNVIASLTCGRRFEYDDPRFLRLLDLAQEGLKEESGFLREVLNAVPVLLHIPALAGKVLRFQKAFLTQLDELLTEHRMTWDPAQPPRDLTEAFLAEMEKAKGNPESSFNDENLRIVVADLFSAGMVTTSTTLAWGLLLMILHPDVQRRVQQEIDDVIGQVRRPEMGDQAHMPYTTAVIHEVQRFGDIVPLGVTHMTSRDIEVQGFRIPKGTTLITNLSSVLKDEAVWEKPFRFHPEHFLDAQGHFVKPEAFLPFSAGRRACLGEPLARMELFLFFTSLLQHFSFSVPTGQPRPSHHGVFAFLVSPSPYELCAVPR
Experimental: as §2, §3

CYP3A4 = CYP3A4 (Homo sapiens (Human), UniProt P08684); assay: as above; format: in vitro ADME; settings: microsomes
Sequence of CYP3A4 (P08684 whole entry): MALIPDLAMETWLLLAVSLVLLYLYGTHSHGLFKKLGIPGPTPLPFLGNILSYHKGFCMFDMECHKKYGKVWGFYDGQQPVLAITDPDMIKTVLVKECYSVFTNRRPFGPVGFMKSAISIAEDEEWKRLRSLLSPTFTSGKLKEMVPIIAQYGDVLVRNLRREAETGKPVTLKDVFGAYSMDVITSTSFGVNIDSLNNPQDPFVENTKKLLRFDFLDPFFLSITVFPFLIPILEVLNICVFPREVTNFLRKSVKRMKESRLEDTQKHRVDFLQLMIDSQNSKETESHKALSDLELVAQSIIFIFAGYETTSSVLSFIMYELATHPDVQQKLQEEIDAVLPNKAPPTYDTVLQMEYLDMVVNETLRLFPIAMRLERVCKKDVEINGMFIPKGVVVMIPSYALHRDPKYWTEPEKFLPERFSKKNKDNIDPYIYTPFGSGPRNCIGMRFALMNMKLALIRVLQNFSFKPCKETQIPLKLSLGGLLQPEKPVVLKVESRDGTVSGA
Experimental: as §2, §3

[1] = tested on: TNF-alpha (TNFA), interleukin 6 (IL6), interleukin 1beta (IL1B), MCP1 and interleukin 8 (IL8); assay: Immune cellular assay, cytokine ELISA multiplex in LPS-treated THP-1 derived macrophages; format: cell-based, human; settings: 1 μM, THP-1 macrophages, 100 ng/mL LPS for 4 or 24 hours
Experimental: The anti-inflammatory properties of the four VNN1 inhibitors (Compound 1, Compound 2, Compound 3, and Compound 80) were evaluated in an immune cellular assay targeting key pro-inflammatory cytokines involved in the pathogenesis of multiple autoimmune disease.
Specifically, THP-1 human monocytes were grown in 6-well plates (RPMI 1640+10% FBS+1% P/S). After washing with PBS the THP-1 cells were differentiated into macrophages using 20 nM of phorbol 12-myristate 13-acetate (PMA) for 24 hrs. Compound 1, Compound 2, Compound 3, and Compound 80 (1 μM) were added into the macrophages, which are incubated for 4 hours before the addition of 100 ng/mL lipopolysaccharide (LPS) for either 4 or 24 hours. Next, the macrophages are collected via centrifugation at 1.2K rpm for 5 min and use their media to evaluate cytokine protein levels by using the Bio-rad Cytokine ELISA multiplex assay (cat. No M5000031YV). The supernatants from macrophages treated only with only LPS+PMA are collected and use as negative controls.
The anti-inflammatory properties of the VNN1 inhibitors Compound 5, Compound 9, Compound 10, Compound 13, Compound 14, Compound 16, Compound 20, Compound 21, Compound 26, Compound 23, and Compound 24 are evaluated using the immune cellular assay outlined in Example 6. Suppression of TNF-alpha (TNFA), interleukin 6 (IL6), interleukin 1beta (IL1B), MCP1 and interleukin 8 (IL8) is determined.

TNF-alpha (TNFA) = assay: Cellular assay, TNF-alpha ELISA in LPS-treated THP-1 cells; format: cell-based; settings: 1 μM, THP-1 human monocytes, LPS 50 ng/ml, p<0.05
Experimental: THP-1 cells were grown to confluence and plated in 6-well plates. PMA (25 nM) was added to the medium and replaced with non-PMA containing medium 24 hrs later. ATH compounds (1 μM) or vehicle (0.1% DMSO) were added and allowed to incubate. After 4 hrs LPS (50 ng/ml) was added without replacement of the medium and supernatants were collected after 4 and 24 hrs. Media were placed on ice for cytokine detection using ELISA (Quantikine, R&D Systems).
VNN1 inhibitors Compound 1 and Compound 2 show suppression of TNF-alpha (TNFA) expression after LPS (lipopolysaccharide) treatment, in THP-1 human monocytes (FIG. 3, p<0.05 for both).

[2] = parallel artificial membrane permeation assay (PAMPA); settings: 20 μM in PBS/MeOH 90:10, 5 hours at room temperature
Experimental: (§4) The permeability of compounds was evaluated with the parallel artificial membrane permeation assay (PAMPA) as an in vivo model of passive diffusion across a porous filter coated with a lipid/oil/lipid tri-layer artificial membrane. […] Donor solutions of test compound (300 μL, 20 μM in PBS/MeOH 90:10) were added to each well of the donor plate. 200 μL of PBS/MeOH 90:10 was added to each well of the acceptor plate. The acceptor plate was coupled with the donor plate and incubated for 5 hours at room temperature (RT) without agitation. In each plate, test compound was tested in triplicate. At the end of the incubation, test compound concentration in the initial donor solution, acceptor and the donor wells were determined using LC/MS/MS. Permeability of test compound was calculated based on the formula described in “Analytical Method”.

[3] = for Permeability, Pe: PAMPA, 5 h, 20 μM
Experimental: as §4

[4] = positive controls, published class; cited from earlier work
in vitro = settings: PAMPA
Experimental: as §4

O=C(Cc1ccccc1)c1ccn(C(=O)c2ccccc2F)c1 [Compound 1, 1-(1-(2-fluorobenzoyl)-1H-pyrrol-3-yl)-2-phenylethan-1-one]
Kd (Vanin-1): 100 to 500 nM
IC50 (CYP1A2): > 100 µM
IC50 (CYP2C19): 50.6 µM
IC50 (CYP2C8): > 100 µM
IC50 (CYP2C9): > 100 µM
IC50 (CYP2D6): > 100 µM
IC50 (CYP3A4): > 100 µM
activity against IL6, TNFA and MCP1 [1]: highly potent activity
suppression of TNF-alpha (TNFA) expression after LPS treatment (TNF-alpha (TNFA)): suppression; also recorded: significantly inhibits
Permeability, Pe [2]: 23.6 ×10⁻⁶ cm/s

O=C(Cc1ccccc1)c1ccn(Cc2c(F)cccc2F)c1 [Compound 2, 1-(1-(2,6-difluorobenzyl)-1H-pyrrol-3-yl)-2-phenylethan-1-one]
Kd (Vanin-1): 100 to 500 nM
IC50 (CYP1A2): > 100 µM
IC50 (CYP2C19): 15.3 µM
IC50 (CYP2C8): 65.5 µM
IC50 (CYP2C9): 63.4 µM
IC50 (CYP2D6): 27 µM
IC50 (CYP3A4): 73.7 µM
activity against IL6, TNFA and MCP1 [1]: highly potent activity
suppression of TNF-alpha (TNFA) expression after LPS treatment (TNF-alpha (TNFA)): suppression; also recorded: significantly inhibits
Permeability, Pe [3]: 13.6 ×10⁻⁶ cm/s

O=C(c1ccn(Cc2c(F)cccc2F)c1)C(Cc1c(F)cccc1F)c1ccccc1 (stereo not shown) [Compound 3, 1-(1-(2,6-difluorobenzyl)-1H-pyrrol-3-yl)-3-(2,6-difluorophenyl)-2-phenylpropan-1-one]
Kd (Vanin-1): > 500 nM
activity against IL6, TNFA and MCP1 [1]: highly potent activity

Cn1c(C(=O)Cc2ccccc2)ccc1C(=O)c1ccccc1F [Compound 22, 1-(5-(2-fluorobenzoyl)-1-methyl-1H-pyrrol-2-yl)-2-phenylethan-1-one]
Kd (Vanin-1): < 100 nM

Cn1c(C(=O)Cc2ccccc2)ccc1C(=O)c1ccccn1 [Compound 25, 1-(1-methyl-5-picolinoyl-1H-pyrrol-2-yl)-2-phenylethan-1-one]
Kd (Vanin-1): 100 to 500 nM

Cn1c(C(=O)c2ccccc2F)ccc1C(=O)N1CCC2(CCOCC2)C1 [Compound 33, (5-(2-fluorobenzoyl)-1-methyl-1H-pyrrol-2-yl) (8-oxa-2-azaspiro[4.5]decan-2-yl) methanone]
Kd (Vanin-1): < 100 nM

Cn1c(C(=O)NC(C)(C)C)ccc1C(=O)c1ccccc1F [Compound 43, N-(tert-butyl)-5-(2-fluorobenzoyl)-1-methyl-1H-pyrrole-2-carboxamide]
Kd (Vanin-1): < 100 nM

Cn1cc(C(=O)Cc2ccccc2)cc1C(=O)c1ccccc1F [Compound 46, 1-(5-(2-fluorobenzoyl)-1-methyl-1H-pyrrol-3-yl)-2-phenylethan-1-one]
Kd (Vanin-1): > 500 nM

O=C(Cc1ccccc1)c1c[nH]c(C(=O)c2ccccc2F)c1 [Compound 47, 1-(5-(2-fluorobenzoyl)-1H-pyrrol-3-yl)-2-phenylethan-1-one]
Kd (Vanin-1): > 500 nM

Cn1cc(C(=O)c2ccccc2F)cc1C(=O)O [Compound 76, 4-(2-fluorobenzoyl)-1-methyl-1H-pyrrole-2-carboxylic acid]
Kd (Vanin-1): > 500 nM

Cn1cc(C(=O)c2ccccc2F)cc1C(=O)N1CCC2(CCOCC2)C1 [Compound 77, (4-(2-fluorobenzoyl)-1-methyl-1H-pyrrol-2-yl) (8-oxa-2-azaspiro[4.5]decan-2-yl) methanone]
Kd (Vanin-1): < 100 nM

CC(=O)N(C)[C@@H]1CCN(C(=O)c2cc(C(=O)c3ccccc3F)cn2C)C1 [Compound 78, (R)—N-(1-(4-(2-fluorobenzoyl)-1-methyl-1H-pyrrole-2-carbonyl)pyrrolidin-3-yl)-N-methylacetamide]
Kd (Vanin-1): < 100 nM

Cn1cccc1C(=O)Cc1ccccc1 [Compound 80, 1-(1-methyl-1H-pyrrol-2-yl)-2-phenylethan-1-one]
activity against IL6, TNFA and MCP1 [1]: highly potent activity

O=C(O)Cc1ccccc1Nc1c(Cl)cccc1Cl [Diclofenac]
Permeability, Pe [3]: 10.9 ×10⁻⁶ cm/s
published permeability [4]: high

CCN1CCCC1CNC(=O)c1cc(S(N)(=O)=O)ccc1OC (stereo not shown) [Sulpiride]
PAMPA permeability Classification [3]: Low/Medium
published permeability [4]: low
Papp at 5 h, 20 μM (in vitro): 0.0392 ×10⁻⁶ cm/s
